2 compounds from patent US20240368157A1, “FORMS AND COMPOSITIONS OF A JAK2 INHIBITOR” (Ajax Therapeutics, Inc., priority 2023, published 2024) can be followed below.

For one series, the target named is T1, JAK1 (Homo sapiens, UniProt P23458).
T1 construct: made in house; host or cells: E. coli (BL21-derived, T7 phage display) or HEK-293
The experiment in a line: JAK Family Selectivity Assay (JAK1 vs JAK2 binding affinity). The settings on record: selectivity over JAK2. The protocol: (§1) Provided compounds are evaluated for selectivity by comparing their JAK2 binding affinity (Kd) in the above JAK2 Binding Assay with their binding affinity (Kd) for one or more other kinases. Binding affinity for other kinases is determined as follows: Kinase-tagged T7 phage strains are prepared in an E. coli host derived from the BL21 strain. E. coli are grown to log-phase and infected with T7 phage and incubated with shaking at 32° C. until lysis. The lysates are centrifuged and filtered to remove cell debris. The remaining kinases are produced in HEK-293 cells and subsequently tagged with DNA for qPCR detection. Streptavidin-coated magnetic beads are treated with biotinylated small molecule ligands for 30 minutes at room temperature to generate affinity resins for kinase assays. The liganded beads are blocked with excess biotin and washed with blocking buffer (SeaBlock (Pierce), 1% BSA, 0.05% Tween 20, 1 mM DTT) to remove unbound ligand and to reduce non-specific binding. Binding reactions are assembled by combining kinases, liganded affinity beads, and test compounds in 1× binding buffer (20% SeaBlock, 0.17×PBS, 0.05% Tween 20, 6 mM DTT). Test compounds are prepared as 111× stocks in 100% DMSO. Kds are determined using an 11-point 3-fold compound dilution series with three DMSO control points. […] The kinase concentration in the eluates is measured by qPCR. […]

The next series has as its target T2, JAK3 (Homo sapiens, UniProt P52333).
T2 construct: made in house; host or cells: E. coli (BL21-derived, T7 phage display) or HEK-293
T2 sequence (P52333 1-1124): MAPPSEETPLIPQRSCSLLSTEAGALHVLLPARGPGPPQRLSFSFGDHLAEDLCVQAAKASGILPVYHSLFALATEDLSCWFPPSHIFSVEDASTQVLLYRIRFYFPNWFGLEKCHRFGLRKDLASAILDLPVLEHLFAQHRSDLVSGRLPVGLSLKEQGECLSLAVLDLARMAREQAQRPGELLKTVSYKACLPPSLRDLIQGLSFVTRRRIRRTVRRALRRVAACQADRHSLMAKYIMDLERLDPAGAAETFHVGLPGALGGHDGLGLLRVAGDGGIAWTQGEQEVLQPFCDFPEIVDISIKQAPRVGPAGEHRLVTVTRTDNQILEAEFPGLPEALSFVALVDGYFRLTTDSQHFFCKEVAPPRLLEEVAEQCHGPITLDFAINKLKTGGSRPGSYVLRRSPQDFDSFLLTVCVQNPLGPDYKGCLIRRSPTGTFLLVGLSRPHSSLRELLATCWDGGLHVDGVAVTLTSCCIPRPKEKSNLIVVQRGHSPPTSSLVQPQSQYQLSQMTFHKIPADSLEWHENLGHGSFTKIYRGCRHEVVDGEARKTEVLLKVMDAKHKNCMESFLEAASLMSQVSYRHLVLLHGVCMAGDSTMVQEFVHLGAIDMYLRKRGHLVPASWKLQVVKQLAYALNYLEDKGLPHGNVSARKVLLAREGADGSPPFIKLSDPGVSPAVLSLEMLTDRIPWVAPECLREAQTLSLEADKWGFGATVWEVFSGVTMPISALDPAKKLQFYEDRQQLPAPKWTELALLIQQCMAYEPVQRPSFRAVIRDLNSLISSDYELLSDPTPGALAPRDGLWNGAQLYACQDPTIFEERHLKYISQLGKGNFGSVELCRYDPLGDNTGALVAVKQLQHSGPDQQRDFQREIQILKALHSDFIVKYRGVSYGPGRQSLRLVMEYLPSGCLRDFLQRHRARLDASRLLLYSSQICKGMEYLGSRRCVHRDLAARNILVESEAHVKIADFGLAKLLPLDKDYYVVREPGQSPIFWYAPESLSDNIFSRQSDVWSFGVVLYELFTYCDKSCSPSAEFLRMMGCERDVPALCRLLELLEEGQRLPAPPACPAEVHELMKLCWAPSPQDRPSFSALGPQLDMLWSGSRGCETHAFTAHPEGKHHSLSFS
Nature of the series: JAK Family Selectivity Assay (JAK3 vs JAK2 binding affinity). The note with it: selectivity over JAK2. The method, then:
as §1

For a further series, the target named is T3, TYK2 (Homo sapiens, UniProt P29597).
T3 construct: made in house; host or cells: E. coli (BL21-derived, T7 phage display) or HEK-293
Nature of the series: JAK Family Selectivity Assay (TYK2 vs JAK2 binding affinity). The settings on record: selectivity over JAK2. The method, then:
as §1

Series [1] in a line: Hepatocyte Stability Assay (human hepatocytes). Type of series: in vitro ADME. The note with it: cryopreserved hepatocytes, read-out: Human Heps CLint. The method, then:
(§2) 10 mM stock solutions of test compound and positive control are prepared in DMSO. Stock solutions are diluted to 100 μM by combining 198 μL of 50% acetonitrile/50% water and 2 μL of 10 mM stock solution. Verapamil is used as positive control in the assay. Vials of cryopreserved hepatocytes are thawed in a 37° C. water bath with gently shaking. The contents are poured into the 50 mL thawing medium conical tube. Vials are centrifuged at 100 g for 10 minutes at room temperature. Thawing medium is aspirated and hepatocytes are re-suspended with serum-free incubation medium to yield ˜1.5×10^6 cells/mL. Cell viability and density are counted using a Trypan Blue exclusion, and then cells are diluted with serum-free incubation medium to a working cell density of 0.5×10^6 viable cells/mL. A portion of the hepatocytes at 0.5×10^6 viable cells/mL are boiled for 5 min prior to adding to the plate as negative control to eliminate the enzymatic activity so that little or no substrate turnover should be observed. Aliquots of 198 μL hepatocytes are dispensed into each well of a 96-well non-coated plate. The plate is placed in the incubator for approximately 10 minutes. Aliquots of 2 μL of the 100 μM test compound and 2 μL positive control are added into respective wells of a non-coated 96-well plate to start the reaction. The final concentration of test compound is 1 μM. […]

The nature of series [2]: Hepatocyte Stability Assay (rat hepatocytes). Type of series: in vitro ADME. The note with it: cryopreserved hepatocytes, read-out: Rat Heps CLint. The protocol: as §2

Where only a bound is given, the exact number is not on record here.

T3 sequence (P29597 whole entry): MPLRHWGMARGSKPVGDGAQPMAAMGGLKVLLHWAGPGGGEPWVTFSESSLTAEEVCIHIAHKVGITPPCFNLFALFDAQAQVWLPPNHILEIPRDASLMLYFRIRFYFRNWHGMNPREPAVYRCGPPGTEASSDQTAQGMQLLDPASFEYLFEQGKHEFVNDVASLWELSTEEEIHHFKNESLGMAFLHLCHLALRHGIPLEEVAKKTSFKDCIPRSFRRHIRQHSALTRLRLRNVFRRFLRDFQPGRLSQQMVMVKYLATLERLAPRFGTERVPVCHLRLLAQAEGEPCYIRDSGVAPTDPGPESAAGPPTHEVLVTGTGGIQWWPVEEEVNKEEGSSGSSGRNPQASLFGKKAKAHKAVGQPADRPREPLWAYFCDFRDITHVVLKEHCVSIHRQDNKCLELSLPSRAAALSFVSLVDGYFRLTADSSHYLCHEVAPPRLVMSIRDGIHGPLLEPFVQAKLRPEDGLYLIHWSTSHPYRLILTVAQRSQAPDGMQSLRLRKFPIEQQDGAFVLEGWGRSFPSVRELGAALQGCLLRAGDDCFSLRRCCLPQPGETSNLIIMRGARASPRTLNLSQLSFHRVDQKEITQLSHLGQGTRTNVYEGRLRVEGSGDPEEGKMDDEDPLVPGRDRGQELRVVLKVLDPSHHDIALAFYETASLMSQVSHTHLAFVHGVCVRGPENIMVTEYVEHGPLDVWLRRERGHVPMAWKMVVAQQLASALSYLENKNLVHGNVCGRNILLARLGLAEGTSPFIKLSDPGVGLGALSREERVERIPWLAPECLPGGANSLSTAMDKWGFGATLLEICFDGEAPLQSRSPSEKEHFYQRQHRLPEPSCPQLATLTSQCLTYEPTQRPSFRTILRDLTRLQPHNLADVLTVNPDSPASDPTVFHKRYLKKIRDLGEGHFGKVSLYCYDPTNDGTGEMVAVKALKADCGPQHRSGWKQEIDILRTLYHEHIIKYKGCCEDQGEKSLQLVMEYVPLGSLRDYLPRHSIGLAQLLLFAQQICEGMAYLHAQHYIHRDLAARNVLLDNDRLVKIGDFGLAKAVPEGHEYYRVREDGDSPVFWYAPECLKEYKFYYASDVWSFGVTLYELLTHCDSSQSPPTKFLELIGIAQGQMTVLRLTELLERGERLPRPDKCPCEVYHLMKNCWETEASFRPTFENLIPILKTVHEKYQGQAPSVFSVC
T1 sequence (P23458 whole entry): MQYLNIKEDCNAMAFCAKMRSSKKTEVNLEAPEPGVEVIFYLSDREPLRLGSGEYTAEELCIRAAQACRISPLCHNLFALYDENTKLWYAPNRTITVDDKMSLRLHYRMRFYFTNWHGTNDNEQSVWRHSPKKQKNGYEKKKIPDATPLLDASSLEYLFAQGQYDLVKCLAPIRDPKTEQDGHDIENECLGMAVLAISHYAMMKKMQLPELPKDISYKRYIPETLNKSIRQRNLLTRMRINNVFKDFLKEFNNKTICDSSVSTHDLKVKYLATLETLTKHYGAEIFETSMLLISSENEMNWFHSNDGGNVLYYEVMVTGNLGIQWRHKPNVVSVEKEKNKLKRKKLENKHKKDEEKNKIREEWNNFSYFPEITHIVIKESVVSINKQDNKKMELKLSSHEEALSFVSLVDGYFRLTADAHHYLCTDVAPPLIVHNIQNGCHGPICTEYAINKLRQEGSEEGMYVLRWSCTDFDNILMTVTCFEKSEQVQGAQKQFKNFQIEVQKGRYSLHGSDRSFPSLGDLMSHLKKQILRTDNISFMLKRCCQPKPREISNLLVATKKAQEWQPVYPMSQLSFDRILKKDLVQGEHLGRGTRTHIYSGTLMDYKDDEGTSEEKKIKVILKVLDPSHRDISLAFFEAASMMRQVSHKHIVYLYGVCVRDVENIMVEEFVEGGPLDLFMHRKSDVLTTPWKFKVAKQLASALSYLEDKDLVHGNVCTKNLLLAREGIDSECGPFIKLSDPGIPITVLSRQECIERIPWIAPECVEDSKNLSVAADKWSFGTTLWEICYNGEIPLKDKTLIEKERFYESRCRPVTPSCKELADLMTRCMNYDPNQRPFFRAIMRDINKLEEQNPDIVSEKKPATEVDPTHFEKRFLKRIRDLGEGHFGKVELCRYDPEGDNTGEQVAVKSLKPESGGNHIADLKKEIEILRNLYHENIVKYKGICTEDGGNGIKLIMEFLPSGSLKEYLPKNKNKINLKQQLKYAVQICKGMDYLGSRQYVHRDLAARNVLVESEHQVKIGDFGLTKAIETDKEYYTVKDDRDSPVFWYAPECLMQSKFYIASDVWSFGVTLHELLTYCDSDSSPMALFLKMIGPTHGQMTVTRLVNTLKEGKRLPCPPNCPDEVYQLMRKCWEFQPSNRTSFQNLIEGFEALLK

Turning to `CN(C)C(=O)Nc1cc(Oc2cnc3nc(Nc4cc(C(F)(F)F)cn(C)c4=O)n(C)c3c2C#N)ccn1` [Compound 1, 3-(4-((7-cyano-1-methyl-2-((1-methyl-2-oxo-5-(trifluoromethyl)-1,2-dihydropyridin-3-yl)amino)-1H-imidazo[4,5-b]pyridin-6-yl)oxy)pyridin-2-yl)-1,1-dimethylurea], the “JAK1/JAK2 Kd/Kd ratio” value on JAK1 was “B (Kd/Kd ratio<1000 and ≥300)”. Besides, the “JAK3/JAK2 Kd/Kd ratio” value on JAK3 is recorded as “A (Kd/Kd ratio≥1000)”. In addition, the “TYK2/JAK2 Kd/Kd ratio” value on TYK2 is “C (Kd/Kd ratio<300 and ≥100)”. Further, the figures for the CLint scaled at 1 μM in series [1] and in series [2] were at most 6 mL/min/kg and 17 to 35 mL/min/kg, respectively.

As to `CCN1CCN(Cc2ccc(Nc3nc4ccc(Oc5ccnc(NC(C)=O)c5)cc4n3C)cc2C(F)(F)F)CC1` [Compound R-1, reference compound], on JAK1, the “JAK1/JAK2 Kd/Kd ratio” value is “C (Kd/Kd ratio<300 and ≥100)”. In addition, the “JAK3/JAK2 Kd/Kd ratio” value at JAK3 is “A (Kd/Kd ratio≥1000)”. The “TYK2/JAK2 Kd/Kd ratio” value at TYK2 is “C (Kd/Kd ratio<300 and ≥100)”. Moreover, the results for the CLint scaled at 1 μM in series [1] and in series [2] were 12 to 20 mL/min/kg and 35 to 45 mL/min/kg, respectively.
